# System: ApoE
# Experiment: apoE secretion by PMA-differentiated THP-1 cells, apoE quantified by ELISA
# Type: cell-based, human
# Details: 3 days; for percent change in apoE secretion versus control at 25 µM / percent change in apoE secretion versus control at 50 µM / percent change in apoE secretion versus control at 100 µM: Homo sapiens, THP-1, 72 h
# Excerpt: The bisphosphonate compounds of the invention can modulate (increase or decrease) apoE levels in plasma and in tissues. The activities of the compounds can be determined in an in vitro cell assay comprising determining the modulatory effect of the test compound on the secretion of apoE by an apoE secreting cell line (e.g., a monocyte-macrophage cell line such as the THP-1 cell line, a liver derived cell line such as the HepG2 cell line, an intestinal derived cell line such as the CaCo2 cell line or a brain derived cell line such as the astrocytoma CCF-STTG1 cell line).
# THP-1 cell line (ATCC TIB-202) are cultured in RPMI 1640 (with 2 mM of L-glutamine and 2 g/l of glucose, Invitrogen) supplemented with 2 g/l of sodium hydrogen carbonate (Fluka), 10 U/ml of penicillin, 10 μg/ml of streptomycin (Penicillin-Streptomycin, Invitrogen), 20 μM of 2-mercaptoethanol (Fluka) and 10% FCS (Amimed). Cells are incubated at 37° C. and 5% CO2.
# Cells are seeded in 24 well tissue culture plates (Falcon), 2×10^5 cells in 500 μl of culture medium per well or 6 well plates for RT-PCR purpose, 1×10^6 cells in 2.5 ml of medium. PMA (Phorbol 12-myristate 13-acetate, Alexis), (stock in DMSO (Fluka) at 1 mg/ml) and other compounds are diluted in ethanol and added to the cells at an ethanol final concentration not exceeding 1%. Same volume of ethanol is added in controls. Plates are incubated for 3 days at 37° C. and 5% CO2 to allow cell differentiation and apoE secretion.
# Medium contained in the wells is harvested and centrifuged 5 min at 1200 rpm. Supernatants are store at −20° C. until apoE quantification. The cell pellets are resuspended in PBS and counted with a ZI Coulter Counter. After a wash with PBS, adherent cells in the well bottoms are detached with trypsin-EDTA solution 10× (Invitrogen) diluted in PBS. The reaction is stopped with the addition of culture medium and the detached cells are counted.
# ApoE was quantified by ELISA. 96 well plates (Costar) are coated with 5% of gelatine (from porcine skin, Fluka) in carbonate-bicarbonate buffer (Sigma) for 1 hour at 37° C. After removing the coating solution, 100 μl of THP-1 supernatant are added per well, diluted 5 times in buffer (PBS, 1% Top-Block (Juro), 0.1% Tween 20 (Fluka)). The incubation last 1 hour at 37° C., then the wells are washed 3 times with 200 μl of buffer. Plates are incubated for 1 hour at 37° C. with continuous stirring with the primary antibody (goat anti-human apoE IgG, Calbiochem) at a 10000-time dilution in buffer, 100 μl per well. After 3 washes, plates are incubated with the secondary antibody (rabbit anti-goat-IgG peroxidase conjugated, Sigma) diluted 5000 times, 100 μl per well, at 37° C. with shaking. Then the wells are washed 5 more times and the detection is achieved by adding 100 μl per well of o-phenylenediamine dihydrochloride (Sigma) and incubated for 15-20 minutes with shaking at room temperature. When the appropriated colour is reached, the reaction is stopped by adding 50 μl per well of 3 M sulfuric acid (Fluka) with shaking for 1 minute at room temperature. The absorbance is read at 492 nm versus 620 nm with a microplate photometer (Anthos Reader 2001).
SMILES,"percent change in apoE secretion versus control at 25 µM (compound 25 μM, 1.25 nM PMA)","percent change in apoE secretion versus control at 25 µM (compound 25 μM, 2.5 nM PMA)","percent change in apoE secretion versus control at 50 µM (compound 50 μM, 1.25 nM PMA)","percent change in apoE secretion versus control at 50 µM (compound 50 μM, 2.5 nM PMA)","percent change in apoE secretion versus control at 100 µM (compound 100 μM, 2.5 nM PMA)","% ApoE Change (compound 25 μM, 1.25 nM PMA)","% ApoE Change (compound 25 μM, 2.5 nM PMA)","% ApoE Change (compound 50 μM, 1.25 nM PMA)","% ApoE Change (compound 50 μM, 2.5 nM PMA)","% ApoE Change (compound 100 μM, 1.25 nM PMA)","% ApoE Change (compound 100 μM, 2.5 nM PMA)","percent change in apoE secretion versus control at 100 µM (compound 100 μM, 1.25 nM PMA)"
"CCOP(=O)(OCC)C(c1ccc(OCCN(CCC#N)c2ccccc2)cc1)P(=O)(OCC)OCC [Tetraethyl 1-(4-{2-[(2-cyano-ethyl)-phenyl-amino]-ethoxy}-phenyl)-methylidene-1,1-bisphosphonate]",276%,209%,678%,311%,499%,–,–,–,–,–,–,–
"CCOP(=O)(OCC)C(c1ccc(OCc2ccc(C#N)cc2)cc1)P(=O)(OCC)OCC [Tetraethyl 1-[4-(4-cyano-benzyloxy)-phenyl]-methylidene-1,1-bisphosphonate]",–,–,–,–,–,91%,134%,192%,225%,447%,328%,–
"CC(C)OP(=O)(OC(C)C)C(c1ccc(O)cc1)P(=O)(OC(C)C)OC(C)C [Tetraisopropyl 1-(4-hydroxy-phenyl)-methylidene-1,1-bisphosphonate]",290%,52%,399%,35%,73%,–,–,–,–,–,–,488%

# — US20060205692A1, “1,1-and 1,2-Bisphosphonates as apoliprotein e modulators” (priority 2002, published 2006)
